Results on 18 molecules are retold here after patent publication US20110306636A1, “OXAZOLE PYRIDINE DERIVATIVES USEFUL AS S1P1 RECEPTOR AGONISTS” (Merck Serono SA, priority 2009, published 2011).

Structures are written as SMILES. Where a name gives a salt, the structure may show the parent alone. Read-outs that look alike come from different tables or passages of the source.

For one experiment, the target named is S1P1 (Homo sapiens, UniProt P21453). In words: Receptor binding assay, [33P]sphingosine 1-phosphate competition, S1P1. The method, then:
(§1) Membranes Preparation: Membranes were prepared from CHO cells expressing S1P1 or S1P3 for use in ligand and 35S-GTPγS binding studies. Cells were suspended in 50 mM TRIS, pH 7.4, 2 mM EDTA, 250 mM Sucrose (buffer A) and 1× Complete protease inhibitor cocktail (Roche), and disrupted at 4° C. by N2 decompression using a cell disruption bomb (Parr Instrument). Following centrifugation at 1000 RPM for 10 min at 4° C., the supernatant was diluted (2×) in buffer A and centrifuged again at 19000 RPM for 75 min at 4° C. The pellet was then suspended in 10 mM HEPES, pH 7.4, 1 mM EDTA, 250 mM Sucrose (Buffer B), and 1× Complete EDTA-free protease inhibitor cocktail and homogenized using a potter. Membranes were flash frozen in liquid N2 and stored at −80° C.
(§2) Receptor binding assay: [33P]sphingosine 1-phosphate (3000 Ci/mmol; American Radiolabeled Chemicals, Inc.) was added to test compounds in 20% DMSO by competition. Membranes and WGA SPA beads (GE Healthcare) were added to give a final volume of 100 μl in 96-well plates or 50 μl in 384-well plates with assay concentrations of 30 pM or 15 pM [33P]sphingosine 1-phosphate (respectively for S1P1 or S1P3), 50 mM HEPES, pH 7.5, 5 mM MgCl2, 100 mM NaCl, 0.4% fatty acid-free BSA, 1-5 μg/well of proteins in 96-well plates vs 0.6-1 μg/well of proteins in 384-well plates and 100 μg/well of WGA SPA beads in 96-well plates vs 75 μg/well of WGA SPA beads in 384-well plates. Binding was performed for 60 min at RT on a shaker and bound radioactivity was measured on a PerkinElmer 1450 MicroBeta counter. Triplicate samples were averaged and normalized as purcentage of inhibition relative to total binding (only DMSO in well) and non specific binding (1000-fold excess of unlabeled S1P). Binding data were analyzed using the GraphPad Prism program or Genedata software.

The next experiment addresses S1P3 (Homo sapiens, UniProt Q99500). In words: Receptor binding assay, [33P]sphingosine 1-phosphate competition, S1P3. On the procedure:
as §1, §2

The target of experiment [1] is T1, human S1P1 Receptor fused to the green fluorescent protein (EGFP) (Homo sapiens, UniProt P21453).
T1 construct: host or cells: U2OS (human bone osteosarcoma epithelial cells), CMV promoter, geneticin selection
Put plainly: Internalization of S1P1 in S1P1-U2OS cells by cell imaging analysis. The class given is cell-based. The settings on record: 1 hour incubation, 384-well. The method, then:
Cellular Functional Assays: Internalization of Sphingosine-1-Phosphate Receptor 1 (S1P1) in a Human Cell Line (U2OS) in a 384-Well Format Using a Cell Imaging Analysis.
The S1P1 internalization assay was performed in 384 well plates (Corning® 384 black with clear bottom 3712) using S1P1-U2OS cells from BioImage (C039A), a human epithelial cell line (Human Bone Osteosarcoma Epithelial Cells). These cells expressed the human S1P1 Receptor fused to the green fluorescent protein (EGFP). A standard CMV promoter (cytomegalovirus promoter) controls the expression of S1P1-EGFP and continuous expression was maintained by addition of geneticin to the culture medium.
S1P1 Receptor desensitization induced the internalization of the membrane-localized S1P1-EGFP fusion protein to endosomes, which can be monitored by cell imaging analysis.
The cells are plated in low serum medium (Dulbecco's Modified Eagle Medium (DMEM) with Glutamax-1 and high glucose, 1% Penicillin/Streptomycin, 1% Fetal Calf Serum (FCS), 0.5 mg/ml Geneticin) overnight.
The next day, S1P1-U2OS cells are incubated in 20 μl serum free medium (DMEM with Glutamax-1 and high glucose, 0.1% of fatty-acid free Bovin Serum Albumin (BSA), 10 mM, N′-2-Hydroxyethylpiperazine-N′-2 ethanesulphonic acid (HEPES) 1M) for 2 hours at 37° C./5% CO2.
The cells are then treated with 4 μl compounds/agonists (6×/3% DMSO) for a total volume of 24 μl, and plates are incubated for 1 hour at 37° C./5% CO2.
S1P1-U2OS cells are fixed with 25 μl Paraformaldehyde 8% and stained with Hoechst 33345 dye (1:1000) for 20 minutes.
They were then washed 3 times with Phosphate Buffered Saline (PBS) and plates are sealed.
The internalization of the receptor S1P1-EGFP is measured on Cellomics by calculating the “spot count per object” (“object” corresponds to nuclear and “spot” corresponds to S1P1-EGFP receptor). Internalization data were observed thanks to vHCS View and analyzed using Genedata® software.

The mark [2] stands for this setting: 96 well-plate, read-out: S1P1 binding IC50 (M) (96 well-plate).
Where [3] appears, read: 384 well-plate, read-out: S1P1 binding IC50 (M) (384 well-plate).
The mark [4] stands for this setting: 96 well-plate, read-out: S1P3 binding IC50 (M) (96 well-plate).
[5] abbreviates: 384 well-plate, read-out: S1P3 binding IC50 (M) (384 well-plate).

Chain of S1P3 (Q99500 whole entry, species assumed): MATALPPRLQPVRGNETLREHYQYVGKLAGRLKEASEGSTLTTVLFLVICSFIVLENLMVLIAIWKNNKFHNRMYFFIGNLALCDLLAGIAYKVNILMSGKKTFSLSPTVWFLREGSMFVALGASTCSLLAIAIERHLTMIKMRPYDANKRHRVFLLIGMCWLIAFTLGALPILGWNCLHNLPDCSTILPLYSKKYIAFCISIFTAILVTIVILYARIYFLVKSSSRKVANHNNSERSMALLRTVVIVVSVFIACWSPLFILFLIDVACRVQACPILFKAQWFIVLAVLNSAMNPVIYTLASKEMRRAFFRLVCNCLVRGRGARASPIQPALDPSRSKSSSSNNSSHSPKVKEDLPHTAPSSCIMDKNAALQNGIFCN
T1 sequence (P21453 with tags, fused parts or gaps): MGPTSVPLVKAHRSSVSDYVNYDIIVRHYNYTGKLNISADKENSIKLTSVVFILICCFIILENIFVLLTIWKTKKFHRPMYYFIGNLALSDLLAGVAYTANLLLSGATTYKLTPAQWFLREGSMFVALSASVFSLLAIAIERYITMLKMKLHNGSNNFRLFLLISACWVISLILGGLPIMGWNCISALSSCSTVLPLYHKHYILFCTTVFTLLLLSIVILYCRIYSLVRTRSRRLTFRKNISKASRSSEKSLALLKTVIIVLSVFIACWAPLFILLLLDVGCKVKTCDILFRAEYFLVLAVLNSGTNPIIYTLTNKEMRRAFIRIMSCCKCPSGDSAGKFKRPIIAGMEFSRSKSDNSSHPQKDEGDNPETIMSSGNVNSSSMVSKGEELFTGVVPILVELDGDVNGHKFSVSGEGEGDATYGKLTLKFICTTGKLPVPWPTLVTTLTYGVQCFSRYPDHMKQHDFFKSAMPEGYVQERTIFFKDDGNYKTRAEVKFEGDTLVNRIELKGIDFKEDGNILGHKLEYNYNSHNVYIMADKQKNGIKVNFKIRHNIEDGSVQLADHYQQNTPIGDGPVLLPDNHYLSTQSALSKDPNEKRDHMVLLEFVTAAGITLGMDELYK
Chain of S1P1 (P21453 whole entry, species assumed): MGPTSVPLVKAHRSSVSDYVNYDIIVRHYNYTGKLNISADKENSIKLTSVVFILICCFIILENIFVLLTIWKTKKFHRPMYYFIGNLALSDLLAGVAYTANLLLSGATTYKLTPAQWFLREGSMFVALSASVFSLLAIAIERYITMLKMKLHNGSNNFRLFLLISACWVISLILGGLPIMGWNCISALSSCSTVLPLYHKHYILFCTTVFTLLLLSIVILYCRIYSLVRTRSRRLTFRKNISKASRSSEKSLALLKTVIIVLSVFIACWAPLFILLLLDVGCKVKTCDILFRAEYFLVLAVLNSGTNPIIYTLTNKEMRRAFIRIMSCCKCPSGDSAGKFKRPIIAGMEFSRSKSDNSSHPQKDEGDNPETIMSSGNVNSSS

What is called IC50 is the point on the concentration scale where inhibition reaches its midpoint. In general, EC50 refers to the concentration at which the effect is half-maximal. For `COCc1cc(-c2nc(-c3ccc(NCC(O)CO)nc3)no2)ccc1-c1ccccc1C` (stereo not shown) [Example 45, 3-[(5-{5-[2-(methoxymethyl)-2′-methylbiphenyl-4-yl]-1,2,4-oxadiazol-3-yl}pyridin-2-yl)amino]propane-1,2-diol, hydrochloride salt], the concentration for half-maximal inhibition (IC50) on S1P1 (setting [2]) is 2.88e-09 M; on S1P1 (setting [3]), 1.4e-08 M; at S1P3 (setting [4]), 9.31e-06 M; at S1P3 (setting [5]) it was 7.94e-06 M. Also, the EC50 in experiment [1] turned out to be 0.0224 µM.

For the molecule `CCOc1cc(-c2nc(-c3cnc(NCCC(=O)O)c(Cl)c3)no2)ccc1-c1ccccc1C(F)(F)F` [Example 71, N-(3-chloro-5-{5-[2-ethoxy-2′-(trifluoromethyl)biphenyl-4-yl]-1,2,4-oxadiazol-3-yl}pyridin-2-yl)-beta-alanine, hydrochloride salt], the IC50 at S1P1 (setting [3]) amounted to 3.4e-09 M; at S1P3 (setting [4]), 5.75e-06 M; on S1P3 (setting [5]), 8.92e-06 M. The molecule further displayed an EC50 in experiment [1] of 0.0213 µM.

As for `COCc1cc(-c2nc(-c3ccc(CN(C)CC(=O)O)nc3)no2)ccc1-c1ccccc1C` [Example 78, 2-(((5-(5-(2-(methoxymethyl)-2′-methylbiphenyl-4-yl)-1,2,4-oxadiazol-3-yl)pyridin-2-yl)methyl)(methyl)amino)acetic acid], the half-maximal inhibitory concentration (IC50) turned out to be 3.01e-09 M on S1P1 (setting [2]), 3.5e-09 M on S1P1 (setting [3]), 3.04e-06 M on S1P3 (setting [4]) and 2.48e-06 M at S1P3 (setting [5]). The EC50 in experiment [1] turned out to be 0.00948 µM.

Consider `COCc1cc(-c2nc(-c3ccnc(CN(C)CC(=O)O)c3)no2)ccc1-c1ccccc1C` [Example 68, 2-(((4-(5-(2-(methoxymethyl)-2′-methylbiphenyl-4-yl)-1,2,4-oxadiazol-3-yl)pyridin-2-yl)methyl)(methyl)amino)acetic acid], for which the IC50 is 1.79e-09 M on S1P1 (setting [2]), 1.18e-08 M at S1P1 (setting [3]), 8.55e-07 M at S1P3 (setting [4]) and 1.08e-06 M at S1P3 (setting [5]). The molecule further returned a concentration giving a half-maximal response (EC50) in experiment [1] of 0.0105 µM.

Regarding `Cc1cc(-c2nc(-c3ccnc(CN(C)CC(=O)O)c3)no2)ccc1-c1ccccc1C(F)(F)F` [Example 80, 2-(methyl((4-(5-(2-methyl-2′-(trifluoromethyl)biphenyl-4-yl)-1,2,4-oxadiazol-3-yl)pyridin-2-yl)methyl)amino)acetic acid], the IC50 at S1P1 (setting [3]) is 2.76e-08 M. For the same molecule, a half-maximal response in experiment [1] (EC50) required 0.0936 µM.

Regarding `COCc1cc(-c2nc(-c3ccc(NCC(C)O)nc3)no2)ccc1-c1ccccc1C` (stereo not shown) [Example 44, 1-[(5-{5-[2-(methoxymethyl)-2′-methylbiphenyl-4-yl]-1,2,4-oxadiazol-3-yl}pyridin-2-yl)amino]propan-2-ol], the IC50 on S1P1 (setting [2]) amounted to 4.22e-09 M; on S1P1 (setting [3]), 3.03e-08 M. Also, in experiment [1], the EC50 turned out to be 0.056 µM.

As for `COCc1cc(-c2nc(-c3cnc(N[C@H]4CCC[C@H]4C(=O)O)c(Cl)c3)no2)ccc1-c1ccccc1C` (relative stereo) [Example 84, cis-2-(3-chloro-5-(5-(2-(methoxymethyl)-2′-methylbiphenyl-4-yl)-1,2,4-oxadiazol-3-yl)pyridin-2-ylamino)cyclopentanecarboxylic acid], the 50% inhibitory concentration (IC50) at S1P1 (setting [2]) amounted to 1.35e-08 M. Also, in experiment [1], a half-maximal effect (EC50) was put at 0.427 µM.

`COCc1cc(-c2nc(-c3ccc(NCCO)nc3)no2)ccc1-c1ccccc1Cl` [Example 49, 2-[(5-{5-[2′-chloro-2-(methoxymethyl)biphenyl-4-yl]-1,2,4-oxadiazol-3-yl}pyridin-2-yl)amino]ethanol]: the half-inhibitory concentration (IC50) was 3.71e-09 M at S1P1 (setting [2]) and 2.4e-08 M on S1P1 (setting [3]). Also, a half-maximal effect in experiment [1] (EC50) was put at 0.0615 µM.

As to `Cc1ccccc1-c1ccc(-c2nc(-c3cnc(NCCC(=O)O)c(Cl)c3)no2)cc1C` [Example 73, N-{3-chloro-5-[5-(2,2′-dimethylbiphenyl-4-yl)-1,2,4-oxadiazol-3-yl]pyridin-2-yl}-beta-alanine, hydrochloride salt], at S1P1 (setting [3]), the half-maximal inhibitory concentration (IC50) was 1.47e-08 M. In experiment [1], this molecule had a concentration for a half-maximal effect (EC50) of 0.173 µM.

Consider `Cc1cc(-c2nc(-c3ccc(CN(C)CC(=O)O)nc3)no2)ccc1-c1ccccc1C(F)(F)F` [Example 81, 2-(methyl((5-(5-(2-methyl-2′-(trifluoromethyl)biphenyl-4-yl)-1,2,4-oxadiazol-3-yl)pyridin-2-yl)methyl)amino)acetic acid], for which, at S1P1 (setting [3]), the IC50 worked out at 2.5e-08 M. Also, it took 0.17 µM to reach a half-maximal effect in experiment [1] (EC50).

In the case of `COCc1cc(-c2nc(-c3cnc(NCCO)c(Cl)c3)no2)ccc1-c1ccccc1F` [Example 62, 2-[(3-chloro-5-{5-[2′-fluoro-2-(methoxymethyl)biphenyl-4-yl]-1,2,4-oxadiazol-3-yl}pyridin-2-yl)amino]ethanol], the IC50 on S1P1 (setting [2]) was found to be 3.1e-09 M; on S1P1 (setting [3]), 7.54e-09 M. Moreover, in experiment [1], the EC50 is 0.0908 µM.

Take `COCc1cc(-c2nc(-c3ccc(NCCCO)nc3)no2)ccc1-c1ccccc1C` [Example 41, 3-[(5-{5-[2-(methoxymethyl)-2′-methylbiphenyl-4-yl]-1,2,4-oxadiazol-3-yl}pyridin-2-yl)amino]propan-1-ol]: the IC50 on S1P1 (setting [2]) is 6.72e-09 M; on S1P1 (setting [3]), 1.72e-08 M. Also, in experiment [1], the EC50 turned out to be 0.0842 µM.

For the molecule `Cc1ccccc1-c1ccc(-c2nc(-c3cnc(NCCC(=O)O)c(Cl)c3)no2)cc1C(F)(F)F` [Example 61, N-(3-chloro-5-{5-[2′-methyl-2-(trifluoromethyl)biphenyl-4-yl]-1,2,4-oxadiazol-3-yl}pyridin-2-yl)-beta-alanine, hydrochloride salt], the IC50 at S1P1 (setting [2]) was found to be 5.28e-09 M; on S1P1 (setting [3]) it was 9.48e-09 M. The concentration giving a half-maximal response (EC50) in experiment [1] was found to be 0.198 µM.

Turning to `COCc1cc(-c2nc(-c3cnc(NCCCO)c(Cl)c3)no2)ccc1-c1ccccc1C` [Example 83, 3-(3-chloro-5-(5-(2-(methoxymethyl)-2′-methylbiphenyl-4-yl)-1,2,4-oxadiazol-3-yl)pyridin-2-ylamino)propan-1-ol], the concentration for half-maximal inhibition (IC50) on S1P1 (setting [2]) is 2.9e-09 M. The molecule further came in with a half-maximal effective concentration (EC50) in experiment [1] of 0.0467 µM.

With `COCc1cc(-c2nc(-c3ccc(Cl)nc3)no2)ccc1-c1ccccc1C` [Example 40, 2-chloro-5-{5-[2-(methoxymethyl)-2′-methylbiphenyl-4-yl]-1,2,4-oxadiazol-3-yl}pyridine], at S1P1 (setting [2]), the IC50 was 5.49e-08 M. In addition, in experiment [1], the concentration giving a half-maximal response (EC50) is 0.307 µM.

On to `COCCCNc1ncc(-c2noc(-c3ccc(-c4ccccc4C)c(COC)c3)n2)cc1Cl` [Example 82, 3-chloro-5-(5-(2-(methoxymethyl)-2′-methylbiphenyl-4-yl)-1,2,4-oxadiazol-3-yl)-N-(3-methoxypropyl)pyridin-2-amine], for which, at S1P1 (setting [3]), the IC50 amounted to 4.56e-08 M. The same molecule showed an EC50 in experiment [1] of 0.128 µM.

Turning to `Cc1cc(-c2nc(-c3cnc(NCCC(=O)O)c(Cl)c3)no2)ccc1-c1ccccc1C(F)(F)F` [Example 70, N-(3-chloro-5-{5-[2-methyl-2′-(trifluoromethyl)biphenyl-4-yl]-1,2,4-oxadiazol-3-yl}pyridin-2-yl)-beta-alanine, hydrochloride salt], the concentration for half-maximal inhibition (IC50) at S1P1 (setting [3]) came out at 1.72e-08 M. The concentration for a half-maximal effect (EC50) in experiment [1] came out at 0.0934 µM.

`COCc1cc(-c2nc(-c3cnc(N)c(Cl)c3)no2)ccc1N1CCCCC1C` (stereo not shown) [Example 42, 3-chloro-5-{5-[3-(methoxymethyl)-4-(2-methylpiperidin-1-yl)phenyl]-1,2,4-oxadiazol-3-yl}pyridin-2-amine]: the IC50 on S1P1 (setting [2]) was found to be 2.89e-09 M. Moreover, in experiment [1], the response was half-maximal at 0.0479 µM (EC50).
